Laboratory results from publication PMC8141533, “Structural and biochemical analysis of human ADP-ribosyl-acceptor hydrolase 3 reveals the basis of metal selectivity and different roles for the two magnesium ions” (The Journal of Biological Chemistry, 2021).
Substitutions are numbered along the chain they refer to. “Also recorded” adds a separate entry of the source. Each block holds one molecule with its values, some of them ahead of it.

Key:
ARH3^WT = molecular target: T1, ARH3^WT (Homo sapiens, UniProt Q9NX46); assay: Isothermal titration calorimetry (ITC) of ADPR binding to ARH3^WT; conditions: for Kd / N (sites) / ΔG / ΔH / −TΔS: 25 °C, pH 7.5
T1 construct: we determined the structure of full-length ARH3 in complex with ADPR and Ca^2+; made in house
T1 sequence (Q9NX46 1-363): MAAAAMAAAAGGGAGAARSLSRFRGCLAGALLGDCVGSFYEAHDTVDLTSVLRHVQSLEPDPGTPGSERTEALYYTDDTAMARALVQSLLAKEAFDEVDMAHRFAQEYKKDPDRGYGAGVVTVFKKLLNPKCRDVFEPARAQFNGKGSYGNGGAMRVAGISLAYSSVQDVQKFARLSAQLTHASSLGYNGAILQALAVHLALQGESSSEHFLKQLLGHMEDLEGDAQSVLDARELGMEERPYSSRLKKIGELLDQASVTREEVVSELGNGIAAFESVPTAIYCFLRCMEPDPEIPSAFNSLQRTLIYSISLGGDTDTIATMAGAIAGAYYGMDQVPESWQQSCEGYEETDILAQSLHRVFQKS
Protocol: (§1) ITC experiments were performed at 25 °C in a buffer containing 150 mM NaCl, 100 mM Tris at pH 7.5, and 5 mM divalent metals (MgCl2, MnCl2, and CaCl2) or EDTA (Sigma–Aldrich). The WT or mutants of ARH3 were placed in a cell at 50 μM concentration, and ADPR was placed in the injection syringe at 660 μM concentration. Overall, 26 injections (10 μl per injection except for the first sample [5 μl]) were administered with an interval of 5 min between peaks to allow the baseline to be stabilized. […] The obtained plots were fitted with a single-site binding model in the Origin software package (MicroCal, Inc).

ARH3^D77A = molecular target: T2, ARH3^D77A (Homo sapiens, UniProt Q9NX46, D77A); assay: Isothermal titration calorimetry (ITC) of ADPR binding to ARH3^D77A
T2 construct: His6 with PreScission protease cleavage site (N); made in house
T2 sequence (Q9NX46 1-363 D77A): T1 sequence (Q9NX46 1-363) with D77A
Protocol: as §1

ARH3^D314A = molecular target: T3, ARH3^D314A (Homo sapiens, UniProt Q9NX46, D314A); assay: Isothermal titration calorimetry (ITC) of ADPR binding to ARH3^D314A
T3 construct: His6 with PreScission protease cleavage site (N); made in house
T3 sequence (Q9NX46 1-363 D314A): T1 sequence (Q9NX46 1-363) with D314A
Protocol: as §1

ARH3 = molecular target: T4, ARH3 (Homo sapiens, UniProt Q9NX46); assay: Gel-based PAR turnover assay (PARylated PARP1C substrate); format: biochemical; conditions: for effect on PAR hydrolysis by ARH3: WT ARH3 2 μM, 5 mM EDTA or Ca^2+, PARylated PARP1C, 1 h, 37 °C
T4 construct: we determined the structure of full-length ARH3 in complex with ADPR and Ca^2+; made in house
T4 sequence (Q9NX46 1-363): T1 sequence (Q9NX46 1-363)
Protocol: A gel-based PAR-turnover assay was performed to evaluate the enzymatic activity of ARH3^WT, ARH3^D77A, ARH3^D78A, ARH3^D314A, and ARH3^D316A, as described previously ([14], [40]). Briefly, 2 μM of the catalytic domain of human PARP1 (PARP1C; residues 375–1014) was auto-PARylated at 37 °C for 30 min in the presence of 2 μM DBD of PARP1 (residues 1–374), 2 μM double-stranded DNA, and 400 μM β-NAD^+ (Sigma) in a buffer containing 100 mM NaCl, 50 mM Tris (pH 7.5), 10 mM MgCl2, and 2 mM DTT. ARH3 proteins (in the presence of 5 mM EDTA, Mg^2+, or Ca^2+) with final concentrations of 2 μM were mixed with the PARylated PARP1C substrate, followed by incubation for 1 h in 37 °C. Reactions then were stopped by adding 4× SDS-loading dye (Bio-Rad) and visualized by Coomassie blue staining of SDS-polyacrylamide gels.

[1] = ARH3^D77A, 5 mM Mg^2+, 25 °C, pH 7.5
[2] = ARH3^D314A, 5 mM Mg^2+, 25 °C, pH 7.5

- Kd (ARH3^WT; 5 mM Ca^2+): 7.81 ± 0.51 µM
- N (sites) (ARH3^WT; 5 mM Ca^2+): 1.18 ± 0.01 sites
- ΔG (ARH3^WT; 5 mM Ca^2+): -6.96 kcal/M
- ΔH (ARH3^WT; 5 mM Ca^2+): -5.71 kcal/M
- −TΔS (ARH3^WT; 5 mM Ca^2+): -1.25 kcal/M
- Kd (ARH3^WT; 5 mM EDTA (metal-free)): 80.7 ± 5.25 µM
- N (sites) (ARH3^WT; 5 mM EDTA): 0.96 ± 0.08 sites
- ΔG (ARH3^WT; 5 mM EDTA): -5.59 kcal/M
- ΔH (ARH3^WT; 5 mM EDTA): -5.164 kcal/M
- −TΔS (ARH3^WT; 5 mM EDTA): -0.42 kcal/M
- Kd (ARH3^WT; 5 mM Mg^2+): 1.42 ± 0.07 µM
- N (sites) (ARH3^WT; 5 mM Mg^2+): 1.12 ± 0.01 sites
- ΔG (ARH3^WT; 5 mM Mg^2+): -7.98 kcal/M
- ΔH (ARH3^WT; 5 mM Mg^2+): -9.29 kcal/M
- −TΔS (ARH3^WT; 5 mM Mg^2+): 1.31 kcal/M
- Kd (ARH3^WT; 5 mM Mn^2+): 0.83 ± 0.05 µM
- N (sites) (ARH3^WT; 5 mM Mn^2+): 1.09 ± 0.01 sites
- ΔG (ARH3^WT; 5 mM Mn^2+): -8.29 kcal/M
- ΔH (ARH3^WT; 5 mM Mn^2+): -10.57 kcal/M
- −TΔS (ARH3^WT; 5 mM Mn^2+): 2.28 kcal/M
- reduction in ADPR-binding affinity with Ca^2+ compared with Mg^2+ (ARH3^WT; KD^Ca versus KD^Mg): about a sixfold reduction
- increase in binding affinity with Mg^2+ versus metal-free enzyme (EDTA) (ARH3^WT; KD^Mg versus KD^EDTA): approximately 60 fold
- increase in ADPR-binding affinity compared with ARH3^WT (ARH3^D77A; ARH3^D77A versus ARH3^WT, Mg^2+): 23 fold
- Kd (ARH3^D77A; [1]): 0.06 ± 0.01 µM
- N (sites) (ARH3^D77A; [1]): 1.18 ± 0.01 sites
- ΔG (ARH3^D77A; [1]): -9.87 kcal/M
- ΔH (ARH3^D77A; [1]): -8.50 kcal/M
- −TΔS (ARH3^D77A; [1]): -1.37 kcal/M
- decrease in ADPR-binding affinity compared with ARH3^WT (ARH3^D314A; ARH3^D314A versus ARH3^WT, Mg^2+): 44 fold
- Kd (ARH3^D314A; [2]): 62.9 ± 2.9 µM
- N (sites) (ARH3^D314A; [2]): 0.96 ± 0.04 sites
- ΔG (ARH3^D314A; [2]): -5.74 kcal/M
- ΔH (ARH3^D314A; [2]): -10.36 kcal/M
- −TΔS (ARH3^D314A; [2]): 4.61 kcal/M
SMILES: Nc1ncnc2c1ncn2[C@@H]1O[C@H](COP(=O)(O)OP(=O)(O)OC[C@H]2OC(O)[C@H](O)[C@@H]2O)[C@@H](O)[C@H]1O (stereo partly shown) [ADPR, ADP-ribose]

SMILES: [Ca+2].[Cl-].[Cl-] [Ca^2+, CaCl2]
- effect on PAR hydrolysis by ARH3 (ARH3): inhibit; also recorded: effectively suppresses PAR hydrolysis
- Ca2+-dependent inhibition of ARH3 PAR hydrolysis activity (ARH3; in the presence of Mg2+ and increasing concentrations of Ca2+, 5 mM Ca2+): sufficient to effectively inhibit ARH3 activity

SMILES: O=C(O)CN(CCN(CC(=O)O)CC(=O)O)CC(=O)O [EDTA]
- effect on PAR hydrolysis by ARH3 (ARH3): inhibit; also recorded: effectively suppresses PAR hydrolysis
